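In this assay, cells in 96-well plates receive the compound at five concentrations for 48 hours. Endpoints are linearly interpolated between the surrounding concentrations. At the GI50, growth is halved. TGI denotes the concentration required for complete inhibition of growth.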
What was measured:
Test in all cases: NCI tumour cell line growth inhibition, 48 h
MCF7 breast = tested on: MCF7 breast
IGROV1 ovarian = tested on: IGROV1 ovarian
UACC-62 melanoma = tested on: UACC-62 melanoma
NCI-H522 lung = tested on: NCI-H522 lung
HCC-2998 colon = tested on: HCC-2998 colon
HOP-62 NSCLC = tested on: HOP-62 NSCLC
UO-31 renal = tested on: UO-31 renal
SN12C renal = tested on: SN12C renal
MDA-MB-435 = tested on: MDA-MB-435
SK-MEL-28 melanoma = tested on: SK-MEL-28 melanoma
U251 CNS = tested on: U251 CNS
OVCAR-5 ovarian = tested on: OVCAR-5 ovarian
ACHN renal = tested on: ACHN renal
LOX IMVI melanoma = tested on: LOX IMVI melanoma
UACC-257 melanoma = tested on: UACC-257 melanoma
OVCAR-8 ovarian = tested on: OVCAR-8 ovarian
HS 578T breast = tested on: HS 578T breast
M14 melanoma = tested on: M14 melanoma
MOLT-4 leukemia = tested on: MOLT-4 leukemia
EKVX NSCLC = tested on: EKVX NSCLC
SK-MEL-2 melanoma = tested on: SK-MEL-2 melanoma
SF-295 CNS = tested on: SF-295 CNS
BT-549 breast = tested on: BT-549 breast
HL-60(TB) leukemia = tested on: HL-60(TB) leukemia
DU-145 prostate = tested on: DU-145 prostate
CAKI-1 renal = tested on: CAKI-1 renal
OVCAR-3 ovarian = tested on: OVCAR-3 ovarian
SK-MEL-5 melanoma = tested on: SK-MEL-5 melanoma
SNB-75 CNS = tested on: SNB-75 CNS
PC-3 prostate = tested on: PC-3 prostate
HOP-92 NSCLC = tested on: HOP-92 NSCLC
786-0 renal = tested on: 786-0 renal
SK-OV-3 ovarian = tested on: SK-OV-3 ovarian
T-47D breast = tested on: T-47D breast
SR leukemia = tested on: SR leukemia
MALME-3M melanoma = tested on: MALME-3M melanoma
RPMI-8226 leukemia = tested on: RPMI-8226 leukemia
OVCAR-4 ovarian = tested on: OVCAR-4 ovarian
SNB-19 CNS = tested on: SNB-19 CNS
KM12 colon = tested on: KM12 colon
CCRF-CEM leukemia = tested on: CCRF-CEM leukemia
HT29 colon = tested on: HT29 colon
SF-539 CNS = tested on: SF-539 CNS
HCT-116 colon = tested on: HCT-116 colon
NCI-H226 lung = tested on: NCI-H226 lung
K-562 leukemia = tested on: K-562 leukemia
TK-10 renal = tested on: TK-10 renal
A549 NSCLC = tested on: A549 NSCLC
A498 renal = tested on: A498 renal
SW-620 colon = tested on: SW-620 colon
HCT-15 colon = tested on: HCT-15 colon
COLO 205 colon = tested on: COLO 205 colon
NCI-H23 lung = tested on: NCI-H23 lung
MDA-MB-231 breast = tested on: MDA-MB-231 breast
NCI/ADR-RES ovarian = tested on: NCI/ADR-RES ovarian
SF-268 CNS = tested on: SF-268 CNS
NCI-H460 lung = tested on: NCI-H460 lung

Compound: O=C(CCCCCCNC(=O)C(O)(O)C(F)(F)F)Nc1ncc(-c2ccc(Br)cc2)s1
- GI50 (MCF7 breast): 1.3 µM
- TGI (MCF7 breast): > 31.8 µM
- GI50 (IGROV1 ovarian): 0.846 µM
- TGI (IGROV1 ovarian): 4.51 µM
- GI50 (UACC-62 melanoma): 0.675 µM
- TGI (UACC-62 melanoma): 2.38 µM
- GI50 (NCI-H522 lung): 1.45 µM
- TGI (NCI-H522 lung): 13.8 µM
- GI50 (HCC-2998 colon): 1.36 µM
- TGI (HCC-2998 colon): 4.82 µM
- GI50 (HOP-62 NSCLC): 1.23 µM
- TGI (HOP-62 NSCLC): 9.1 µM
- GI50 (UO-31 renal): 0.745 µM
- TGI (UO-31 renal): 4.41 µM
- GI50 (SN12C renal): 1.25 µM
- TGI (SN12C renal): 18.7 µM
- GI50 (MDA-MB-435): 1.04 µM
- TGI (MDA-MB-435): > 31.8 µM
- GI50 (SK-MEL-28 melanoma): 1.12 µM
- TGI (SK-MEL-28 melanoma): > 31.8 µM
- GI50 (U251 CNS): 0.83 µM
- TGI (U251 CNS): > 31.8 µM
- GI50 (OVCAR-5 ovarian): 0.686 µM
- TGI (OVCAR-5 ovarian): 5.57 µM
- GI50 (ACHN renal): 0.908 µM
- TGI (ACHN renal): 4.83 µM
- GI50 (LOX IMVI melanoma): 0.564 µM
- TGI (LOX IMVI melanoma): 1.36 µM
- GI50 (UACC-257 melanoma): 1.92 µM
- TGI (UACC-257 melanoma): > 31.8 µM
- GI50 (OVCAR-8 ovarian): 1.37 µM
- TGI (OVCAR-8 ovarian): > 31.8 µM
- GI50 (HS 578T breast): 1.04 µM
- TGI (HS 578T breast): > 31.8 µM
- GI50 (M14 melanoma): 1.47 µM
- TGI (M14 melanoma): > 31.8 µM
- GI50 (MOLT-4 leukemia): 0.831 µM
- TGI (MOLT-4 leukemia): > 31.8 µM
- GI50 (EKVX NSCLC): 1.33 µM
- TGI (EKVX NSCLC): > 31.8 µM
- GI50 (SK-MEL-2 melanoma): 1.36 µM
- TGI (SK-MEL-2 melanoma): 18.8 µM
- GI50 (SF-295 CNS): 0.628 µM
- TGI (SF-295 CNS): 1.51 µM
- GI50 (BT-549 breast): 0.851 µM
- TGI (BT-549 breast): > 31.8 µM
- GI50 (HL-60(TB) leukemia): 1.62 µM
- TGI (HL-60(TB) leukemia): > 31.8 µM
- GI50 (DU-145 prostate): 1.11 µM
- TGI (DU-145 prostate): 6.41 µM
- GI50 (CAKI-1 renal): 1.22 µM
- TGI (CAKI-1 renal): 16.8 µM
- GI50 (OVCAR-3 ovarian): 0.781 µM
- TGI (OVCAR-3 ovarian): 2.91 µM
- GI50 (SK-MEL-5 melanoma): 0.972 µM
- TGI (SK-MEL-5 melanoma): 3.43 µM
- GI50 (SNB-75 CNS): 1.84 µM
- TGI (SNB-75 CNS): > 31.8 µM
- GI50 (PC-3 prostate): 0.957 µM
- TGI (PC-3 prostate): > 31.8 µM
- GI50 (HOP-92 NSCLC): 0.199 µM
- TGI (HOP-92 NSCLC): 1.51 µM
- GI50 (786-0 renal): 1 µM
- TGI (786-0 renal): > 31.8 µM
- GI50 (SK-OV-3 ovarian): 1.02 µM
- TGI (SK-OV-3 ovarian): 3.1 µM
- GI50 (T-47D breast): 0.808 µM
- TGI (T-47D breast): 25.8 µM
- GI50 (SR leukemia): 0.478 µM
- TGI (SR leukemia): > 31.8 µM
- GI50 (MALME-3M melanoma): 0.913 µM
- TGI (MALME-3M melanoma): > 31.8 µM
- GI50 (RPMI-8226 leukemia): 0.452 µM
- TGI (RPMI-8226 leukemia): > 31.8 µM
- GI50 (OVCAR-4 ovarian): 2.48 µM
- TGI (OVCAR-4 ovarian): > 31.8 µM
- GI50 (SNB-19 CNS): 1.32 µM
- TGI (SNB-19 CNS): 6.61 µM
- GI50 (KM12 colon): 1.25 µM
- TGI (KM12 colon): 6.66 µM
- GI50 (CCRF-CEM leukemia): 1.19 µM
- TGI (CCRF-CEM leukemia): > 31.8 µM
- GI50 (HT29 colon): 0.735 µM
- TGI (HT29 colon): > 31.8 µM
- GI50 (SF-539 CNS): 1.23 µM
- TGI (SF-539 CNS): > 31.8 µM
- GI50 (HCT-116 colon): 0.273 µM
- TGI (HCT-116 colon): 6.73 µM
- GI50 (NCI-H226 lung): 2.4 µM
- TGI (NCI-H226 lung): 14.4 µM
- GI50 (K-562 leukemia): 0.442 µM
- TGI (K-562 leukemia): > 31.8 µM
- GI50 (TK-10 renal): 0.456 µM
- TGI (TK-10 renal): > 31.8 µM
- GI50 (A549 NSCLC): 1.6 µM
- TGI (A549 NSCLC): > 31.8 µM
- GI50 (A498 renal): 0.13 µM
- TGI (A498 renal): 1.65 µM
- GI50 (SW-620 colon): 0.84 µM
- TGI (SW-620 colon): 3.1 µM
- GI50 (HCT-15 colon): 1.43 µM
- TGI (HCT-15 colon): 6.28 µM
- GI50 (COLO 205 colon): 0.826 µM
- TGI (COLO 205 colon): 2.26 µM
- GI50 (NCI-H23 lung): 1.21 µM
- TGI (NCI-H23 lung): 6.56 µM
- GI50 (MDA-MB-231 breast): 0.607 µM
- TGI (MDA-MB-231 breast): 2 µM
- GI50 (NCI/ADR-RES ovarian): 1.35 µM
- TGI (NCI/ADR-RES ovarian): 7.11 µM
- GI50 (SF-268 CNS): 1.29 µM
- TGI (SF-268 CNS): 12.2 µM
- GI50 (NCI-H460 lung): 0.89 µM
- TGI (NCI-H460 lung): 8.2 µM
